Assay results reported in patent US11149022B2, “Antagonists of the muscarinic acetylcholine receptor M4” (Vanderbilt University, priority 2017, dated 2021).
pIC50: −log10 of the molar value.

Key:
[1] = tested on: haloperidol-induced catalepsy; assay: haloperidol-induced catalepsy, a model of parkinsonian motor disability; type: in vivo, mice
Source text: Furthermore, haloperidol-induced catalepsy, a model of parkinsonian motor disability, is reduced in M4 knockout mice as compared to wild-type controls. […] The reversal by scopolamine was uncommonly robust and more pronounced than we observe with agents targeting a number of other targets being evaluated for potential antiparkinsonian effects, including metabotropic glutamate (mGlu) receptors mGlu4 or mGlu5, A2A adenosine receptors, and NMDA receptors. […] Taken together with the extensive studies of M4 modulation of basal ganglia and motor function, these studies provide compelling evidence that M4 is the dominant mAChR subtype involved in the antiparkinsonian effects of non-selective mAChR antagonists and provide support for discovery and development of selective M4 antagonists for treatment of neurodegenerative disease such as PD, dystonia, tardive dyskinesia and other movement disorders.

locomotor activity = conditions: M4 knockout mice, but not the other four mAChR subtypes (M1-3,5); cited from earlier work
Human M4 = biological target: T1, Human M4 (Homo sapiens, UniProt P08173); assay: mAChR M4 cell-based functional assay (calcium flux, antagonist mode); conditions: for remaining activity at 30 µM: % ACh maximum at 30 μM, read-out: Emin; for pIC50: M4/Gqi5/CHO-K1 cells, concentration-dependent decrease of the EC80 acetylcholine response
T1 construct: expressed in transfected cells; host or cells: CHO-K1 (ATCC), stably co-expressing chimeric G protein Gqi5
T1 sequence (P08173 1-479): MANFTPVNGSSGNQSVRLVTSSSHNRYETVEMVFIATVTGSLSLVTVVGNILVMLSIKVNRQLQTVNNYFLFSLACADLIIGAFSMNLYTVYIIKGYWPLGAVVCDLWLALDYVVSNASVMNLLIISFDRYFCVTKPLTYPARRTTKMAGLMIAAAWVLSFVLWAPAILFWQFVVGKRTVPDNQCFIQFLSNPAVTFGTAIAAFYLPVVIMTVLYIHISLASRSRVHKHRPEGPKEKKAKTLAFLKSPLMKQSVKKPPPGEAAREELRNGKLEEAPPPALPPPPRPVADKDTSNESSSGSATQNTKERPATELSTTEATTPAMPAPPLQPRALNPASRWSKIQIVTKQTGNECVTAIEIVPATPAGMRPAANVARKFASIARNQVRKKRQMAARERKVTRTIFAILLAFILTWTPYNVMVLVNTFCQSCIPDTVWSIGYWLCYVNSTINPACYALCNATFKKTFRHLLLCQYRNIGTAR

| Structure (SMILES) | remaining activity at 30 µM (Human M4) [%] | pIC50 (Human M4) | reduction of catalepsy induced by haloperidol ([1]; M4 KO mice) | reversal of catalepsy induced by haloperidol ([1]; WT mice) | locomotor-activating effects (locomotor activity) |
| --- | --- | --- | --- | --- | --- |
| CN1[C@@H]2C[C@@H](OC(=O)[C@H](CO)c3ccccc3)C[C@H]1[C@@H]1O[C@@H]12 [scopolamine] |  |  | ineffective | completely reversed | dramatically reduced |
| Fc1ccc(Cl)c(-c2ccc(NCC3CC4(CCN(Cc5ccccc5)CC4)C3)nn2)c1 [Compound 45, N-[(7-benzyl-7-azaspiro[3.5]nonan-2-yl)methyl]-6-(2-chloro-5-fluoro-phenyl)pyridazin-3-amine] | 5.72 | 5.87 |  |  |  |
| Cc1cnn(C)c1-c1ccc(OC2CC3(CCN(CC4CC5C=CC4C5)CC3)C2)nn1 (stereo not shown) [Compound 32, 7-(5-bicyclo[2.2.1]hept-2-enylmethyl)-2-[6-(2,4-dimethylpyrazol-3-yl)pyridazin-3-yl]oxy-7-azaspiro[3.5]nonane] | 3.96 | 6.80 |  |  |  |
| Cc1nn(C)cc1-c1ccc(NCC2CC3(CCN(CCC(C)(C)C)CC3)C2)nn1 [Compound 39, N-[[7-(3,3-Dimethylbutyl)-7-azaspiro[3.5]nonan-2-yl]methyl]-6-(1,3-dimethylpyrazol-4-yl)pyridazin-3-amine] | 4.55 | 6.66 |  |  |  |
| Cc1nn(C)cc1-c1ccc(NCC2CC3(CCN(CC4CCOCC4)CC3)C2)nn1 [Compound 52, 6-(1,3-dimethylpyrazol-4-yl)-N-[[7-(tetrahydropyran-4-ylmethyl)-7-azaspiro[3.5]nonan-2-yl]methyl]pyridazin-3-amine] | 30.8 | < 5.00 |  |  |  |

The remaining compounds from weak to strong by pIC50 (Human M4), led by results:

| remaining activity at 30 µM (Human M4) [%] | pIC50 (Human M4) | Structure (SMILES) | reduction of catalepsy induced by haloperidol ([1]; M4 KO mice) | reversal of catalepsy induced by haloperidol ([1]; WT mice) | locomotor-activating effects (locomotor activity) |
| --- | --- | --- | --- | --- | --- |
| 6.19 | 5.94 | Cc1nn(C)cc1-c1ccc(NCC2CC3(CCN(CC4CCCCC4)CC3)C2)nn1 [Compound 50, N-[[7-(cyclohexylmethyl)-7-azaspiro[3.5]nonan-2-yl]methyl]-6-(1,3-dimethylpyrazol-4-yl)pyridazin-3-amine] |  |  |  |
| 2.73 | 6.23 | CC(CN1CCC2(CC1)CC(Oc1ccc(-c3cc(F)ccc3Cl)nn1)C2)C(C)(C)C (stereo not shown) [Compound 17, 2-[6-(2-chloro-5-fluoro-phenyl)pyridazin-3-yl]oxy-7-(2,3,3-trimethylbutyl)-7-azaspiro[3.5]nonane] |  |  |  |
| 3.92 | 6.62 | Cc1cnn(C)c1-c1ccc(OC2CC3(CCN(CCC(C)(C)C)CC3)C2)nn1 [Compound 14, 7-(3,3-Dimethylbutyl)-2-[6-(2,4-dimethylpyrazol-3-yl)pyridazin-3-yl]oxy-7-azaspiro[3.5]nonane] |  |  |  |
| 3.07 | 6.74 | Fc1ccc(Cl)c(-c2ccc(OC3CC4(CCN(CC5CC6C=CC5C6)CC4)C3)nn2)c1 (stereo not shown) [Compound 16, 7-(5-bicyclo[2.2.1]hept-2-enylmethyl)-2-[6-(2-chloro-5-fluoro-phenyl)pyridazin-3-yl]oxy-7-azaspiro[3.5]nonane] |  |  |  |
